Assay results: EP1137645B1, “ALPHA-METHYLBENZYL-CONTAINING THIOUREA INHIBITORS OF HERPES VIRUSES CONTAINING A […] GROUP” (Wyeth, priority 1998, dated 2000)
≈ marks a conversion by molar mass, not a printed value. Read-outs that look alike come from different tables or passages of the source.

Tests used:
VZV strain Ellen = experiment: VZV antiviral (ELISA) assay; assay type: cell-based
How it was run: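 HFF cells infected with VZV Ellen at multiplicity below 0.1 overnight, then mixed infected/uninfected cells seeded with compound in DMEM/2% FBS and incubated three days at 37°C, 5% CO2.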

[1] = tested on: HCMV recombinant mutant virus whose genome contains the prokaryotic beta-glucuronidase gene; experiment: microbe, parasite or virus in culture; assay type: cell-based, human cytomegalovirus; conditions: Human betaherpesvirus 5, Fibroblast
How it was run: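 Human foreskin fibroblasts infected with HCMV recombinant carrying beta-glucuronidase under a viral promoter (e.g. RV145) in presence of compound. At 96 h post-infection, lysates assayed for beta-glucuronidase by colorimetric or fluorogenic substrate as replication readout; IC50 estimated from varying compound amounts.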

HSV- I = experiment: HSV antiviral (ELISA) assay; assay type: cell-based; conditions: read-out: IC50 (ug/ml) HSV
How it was run: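 Vero cells in DMEM with 2% FBS treated with compound 30 min before HSV-1 infection (MOI 0.006), then incubated ~24 h at 37°C. Viral replication measured by ELISA against glycoprotein D with β-galactosidase-linked secondary and fluorogenic substrate (ex 365/em 450 nm); IC50 relative to untreated fluorescence.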

[2] = Human alphaherpesvirus 3, VZV strain Ellen, HFF cells, ELISA, read-out: IC50 (ug/ml) VZV
[3] = Human alphaherpesvirus 3, HFF, read-out: % inhibition 10 ug/ml VZV
[4] = Human alphaherpesvirus 3, HFF, read-out: IC50 (ug/ml) VZV
[5] = read-out: IC50 ug/ml HCMV, HCMV, human foreskin fibroblasts
[6] = Human alphaherpesvirus 3, HFF, read-out: IC50 (ug/ml) VZV, VZV strain Ellen, HFF cells, ELISA

SMILES	IC50 (VZV strain Ellen; [2]) [µg/mL]	IC50 ([1]; read-out: IC50 ug/ml HCMV) [µg/mL]	IC50 (HSV- I; HSV- I, Vero cells, ELISA) [µg/mL]	inhibition at 10 µg/mL (VZV strain Ellen; [3]) [%]	IC50 (VZV strain Ellen; [4]) [µg/mL]	IC50 [1, 5] [µg/mL]	inhibition at 10 µg/mL (VZV strain Ellen; Human alphaherpesvirus 3, read-out: % inhibition 10 ug/ml VZV, 10 ug/ml, VZV strain Ellen, HFF cells, ELISA) [%]	IC50 (VZV strain Ellen; [6]) [µg/mL]	IC50 (HSV- I; Vero) [µg/mL]
O=C(Nc1ccc(NC(=S)NCc2ccc3c(c2)OCO3)cc1)c1ccccc1F [Example 540, N-[4-(3-Benzo[1,3]dioxol-5-ylmethyl-thioureido)-phenyl]-2-fluoro-benzamide]	> 10	> 0.5	> 10						
Cc1ccccc1C(=O)Nc1ccc(NC(=S)Nc2ccc(N(C)C3CCN(Cc4ccccc4)C3)c(Cl)c2)cc1 (centres unmarked) [Example 374, N-[4-(3-{4-[(1-Benzyl-pyrrolidin-3-yl)-methyl-amino]-3-chloro-phenyl}-thioureido)-phenyl]-2-methyl-benzamide]			3 (≈ 5.14 µM)	70	4 (≈ 6.85 µM)	3 (≈ 5.14 µM)			
COc1cc(OC)c(NC(=S)Nc2ccc(NC(=O)c3cccc(O)c3)cc2)cc1Cl [Example 254, N-{4-[3-(5-Chloro-2,4-dimethoxy-phenyl)-thioureido]-phenyl}-3-hydroxy-benzamide]			0.9 (≈ 1.97 µM)	110	4 (≈ 8.73 µM)	4 (≈ 8.73 µM)			
COc1cc(OC)c(NC(=S)Nc2ccc(NC(=O)c3ccccc3F)cc2Cl)cc1Cl [Example 355, N-{3-Chloro-4-[3-(5-chloro-2,4-dimethoxy-phenyl)-thioureido]-phenyl}-2-fluoro-benzamide]			0.035 (≈ 0.0708 µM)	40	> 10	> 10			
COc1cc(OC)c(NC(=S)Nc2ccc(NC(=O)c3ccccc3Br)cc2)cc1Cl [Example 142, 2-Bromo-N-{4-[3-(5-chloro-2,4-dimethoxy-phenyl)-thioureido]-phenyl}-benzamide]	> 15	10 (≈ 19.2 µM)	0.4 (≈ 0.768 µM)				51		
CC(NC(=S)Nc1ccc(NC(=O)c2ccccc2F)cc1)c1cccc(Br)c1 (centres unmarked) [Example 780, N-(4-{3-[1-(3-Bromo-phenyl)-ethyl]-thioureido}-phenyl)-2-fluoro-benzamide]						1 (≈ 2.12 µM)		1.2 (≈ 2.54 µM)	> 10
CC(NC(=S)Nc1ccc(NC(=O)c2ccc(Cl)cc2)cc1)c1ccc(F)cc1 (centres unmarked) [Example 756, 4-Chloro-N-(4-{3-[1-(4-fluoro-phenyl)-ethyl]-thioureido}-phenyl)-benzamide]						> 10		0.3 (≈ 0.701 µM)	> 10
Cc1ccccc1C(=O)Nc1ccc(NC(=S)Nc2ccc(N(C)C)c(Cl)c2)cc1 [Example 346, N-{4-[3-(3-Chloro-4-dimethylamino-phenyl)-thioureido]-phenyl}-2-methyl-benzamide]			6 (≈ 13.7 µM)	62	> 10	2 (≈ 4.56 µM)			
COc1cc(OC)c(NC(=S)Nc2ccc(NC(=O)c3ccccc3)cc2)cc1Cl [Example 122, N-{4-[3-(5-Chloro-2,4-dimethoxy-phenyl)-thioureido]-phenyl}-benzamide]			0.3 (≈ 0.679 µM)	13	> 10	4 (≈ 9.05 µM)			
COc1cc(OC)c(NC(=S)Nc2ccc(NC(=O)c3cccc(OCCN4CCOCC4)c3)cc2)cc1Cl [Example 258, N-{4-[3-(5-Chloro-2,4-dimethoxy-phenyl)-thioureido]-phenyl}-3-(2-morpholin-4-yl-ethoxy)-benzamide]			1.5 (≈ 2.63 µM)	92	1.5 (≈ 2.63 µM)	5 (≈ 8.76 µM)			
COc1ccc(C(=O)Nc2ccc(NC(=S)Nc3ccc(OC)c(Cl)c3)cc2)cc1 [Example 820, N-{4-[3-(3-Chloro-4-methoxy-phenyl)-thioureido]-phenyl}-4-methoxy-benzamide]			4 (≈ 9.05 µM)	20	> 10	8 (≈ 18.1 µM)			
COc1cc(OC)c(NC(=S)Nc2ccc(NC(=O)c3ccccc3OC(C)=O)cc2)cc1Cl [Example 115, Acetic acid 2-{4-[3-(5-chloro-2,4-dimethoxy-phenyl)-thioureido]-phenyl-carbamoyl}-phenyl ester]			4 (≈ 8 µM)	98	4 (≈ 8 µM)	8 (≈ 16 µM)			
O=C(Nc1ccc(NC(=S)NCCc2cccc(F)c2)cc1)c1ccccc1F [Example 552, 2-Fluoro-N-(4-{3-[2-(3-fluoro-phenyl)-ethyl]-thioureido}-phenyl)-benzamide]	> 10	> 0.5	> 10						
O=C(Nc1ccc(NC(=S)Nc2ccc(SC3CCCCC3)c(Cl)c2)cc1)c1ccccc1F [Example 357, N-{4-[3-(3-Chloro-4-cyclohexylsulfanyl-phenyl)-thioureido]-phenyl}-2-fluoro-benzamide]			> 10	44	40 (≈ 77.8 µM)	9 (≈ 17.5 µM)			
Nc1c(Cl)cc(NC(=S)Nc2ccc(NC(=O)c3ccccc3F)cc2)cc1Cl [Example 518, N-{4-[3-(4-Amino-3,5-dichloro-phenyl)-thioureido]-phenyl}-2-fluoro-benzamide]			0.25 (≈ 0.556 µM)	32	> 10	4 (≈ 8.9 µM)			
CCCCC(NC(=S)Nc1ccc(NC(=O)c2ccccc2F)cc1)c1ccc(F)cc1 (centres unmarked) [Example 773, 2-Fluoro-N-(4-{3-[1-(4-fluoro-phenyl)-pentyl]-thioureido}-phenyl)-benzamide]						1.2 (≈ 2.65 µM)		> 7.5	> 10
CS(=O)(=O)Nc1ccc(NC(=S)Nc2ccc(NC(=O)c3ccccc3F)cc2)cc1Cl [Example 370, N-{4-[3-(3-Chloro-4-methanesulfonylamino-phenyl)-thioureido]-phenyl}-2-fluoro-benzamide]			> 10	16	> 10	> 10			
CC(NC(=S)Nc1ccc(NC(=O)c2cc3ccccc3cn2)cc1)c1ccc(C#N)cc1 (centres unmarked) [Example 986, Isoquinoline-3-carboxylic acid (4-{3-[1-(4-cyano-phenyl)-ethyl]-thioureido}-phenyl)-amide]						5.2 (≈ 11.5 µM)		0.05 (≈ 0.111 µM)	> 10
CC(NC(=S)Nc1ccc(NC(=O)c2ccc(C(F)(F)F)cc2)cc1)c1ccc(F)cc1 (centres unmarked) [Example 1021, N-(4-{3-[1-(4-Fluoro-phenyl)-ethyl]-thioureido}-phenyl)-4-trifluoromethyl-benzamide]	0.4 (≈ 0.867 µM)	> 10	> 10						
COC(=O)c1cccc(C(=O)Nc2ccc(NC(=S)Nc3cc(Cl)c(OC)cc3OC)cc2)c1 [Example 208, N-{4-[3-(5-Chloro-2,4-dimethoxy-phenyl)-thioureido]-phenyl}-isophthalamic acid methyl ester]			10 (≈ 20 µM)	25	> 10	> 10			
CC(NC(=S)Nc1ccc(NC(=O)c2cccc(Cl)c2)cc1)c1ccc(F)cc1 (centres unmarked) [Example 761, 3-Chloro-N-(4-{3-[1-(4-fluoro-phenyl)-ethyl]-thioureido}-phenyl)-benzamide]						1.5 (≈ 3.51 µM)		> 10	10 (≈ 23.4 µM)
COc1cc(OC)c(NC(=S)Nc2ccc(NC(=O)c3ccc4ccccc4c3)cc2)cc1Cl [Example 156, Naphthalene-2-carboxylic acid {4-[3-(5-chloro-2,4-dimethoxy-phenyl)-thioureido]-phenyl}-amide]			2 (≈ 4.07 µM)	17	> 10	10 (≈ 20.3 µM)			
CCOc1ccc(NC(=S)Nc2ccc(NC(=O)c3ccccc3F)cc2)cc1Cl [Example 806, N-{4-[3-(3-Chloro-4-ethoxy-phenyl)-thioureido]-phenyl}-2-fluoro-benzamide]						> 10		> 7.5	> 10
O=C(Nc1ccc(NC(=S)NCc2cc(C(F)(F)F)cc(C(F)(F)F)c2)cc1)c1ccccc1F [Example 543, N-{4-[3-(3,5-Bis-trifluoromethyl-benzyl)-thioureido]-phenyl}-2-fluoro-benzamide]	> 10	0.3 (≈ 0.582 µM)	> 10						
